Tests used:
[1] = conventional formulations; cited from earlier work
[2] = Bioavailability after administration by inhalation as powder inhalant; conditions: in vivo, inhaled or intranasal; administered by inhalation as powder inhalant; based on the fine content of the formulation (FPD, USP 24 Suppl. 2000)

NCCCC[C@H](NC(=O)[C@@H](Cc1cc(Br)c(O)c(Br)c1)NC(=O)N1CCC(N2Cc3ccccc3NC2=O)CC1)C(=O)N1CCN(c2ccncc2)CC1 [A, 1-[N^2-[3,5-dibromo-N-[[4-(3,4-dihydro-2(1H)-oxoquinazolin-3-yl)-1-piperidinyl]carbonyl]-D-tyrosyl]-L-lysyl]-4-(4-pyridinyl)-piperazine]
oral bioavailability [1]: very limited
bioavailability [2]: ~60%

Source: patent US20050042180A1, “Powder formulation containing the CGRP antagonist 1 [N2-[3,5-dibromo-N-[[4-(3,4-dihydro-2 (1H)-oxoquinazolin-3-yl)-1-piperidinyl]carbonyl]-D-tyrosyl]-L-lysyl]-4-(4-pyridinyl)-piperazin, process for preparing and the use thereof as inhalation powder” (Boehringer Ingelheim International GmbH, priority 2003, published 2005)
